The results in this text go back to US12258327B2, “5-membered heteroaryl-containing aminopyridine compounds as EGFR inhibitors” (YUHAN CORPORATION, priority 2021, dated 2025).

Experiment [1] concerns the target EGFR del19/T790M/C797S (Homo sapiens, UniProt P00533, C797S/DEL746-750/T790M). The experiment in a line: Biochemical EGFR kinase assay (Lance Ultra TR-FRET), triple mutant del19/T790M/C797S. The method, boiled down:
(§1)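 In this biochemical assay, phosphorylation after a one-hour room-temperature reaction was detected with europium-labelled anti-phosphopeptide antibody at 2 nM final concentration.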
On the technique in general: In TR-FRET formats the signal depends on donor and acceptor labels being close together.

Experiment [2] concerns the target EGFR L858R/T790M/C797S (Homo sapiens, UniProt P00533, C797S/L858R/T790M). The experiment in a line: Biochemical EGFR kinase assay (Lance Ultra TR-FRET), triple mutant L858R/T790M/C797S. Summed up:
as §1

Experiment [3] has as its target EGFR del19/C797S (Homo sapiens, UniProt P00533, C797S/DEL746-750). The experiment in a line: Biochemical EGFR kinase assay (Lance Ultra TR-FRET), double mutant del19/C797S. The method, boiled down:
as §1

For experiment [4], the target named is EGFR L858R/C797S (Homo sapiens, UniProt P00533, C797S/L858R). The experiment is described as follows: Biochemical EGFR kinase assay (Lance Ultra TR-FRET), double mutant L858R/C797S. The method, boiled down: as §1
In experiment [5] the target is EGFR wildtype (WT) (Homo sapiens, UniProt P00533). The experiment in a line: Biochemical EGFR kinase assay (Lance Ultra TR-FRET), wildtype. Summed up:
as §1

Where [6] appears, read: Km ATP, read-out: IC50 del19/T790M/C797S (nM) Km ATP.
Setting [7] is: Km ATP, read-out: IC50 L858R/T790M/C797S (nM) Km ATP.
The mark [8] stands for this setting: Km ATP, read-out: IC50 del19/C797S (nM) Km ATP.
Setting [9] is: Km ATP, read-out: IC50 L858R/C797S (nM) Km ATP.
Setting [10] is: Km ATP, read-out: IC50 WT (nM) Km ATP.
The mark [11] stands for this setting: IC50 del19/T790M/C797S (nM) 100 μM ATP, 100 μM ATP.
The mark [12] stands for this setting: IC50 L858R/T790M/C797S (nM) 100 μM ATP, 100 μM ATP.
Where [13] appears, read: IC50 del19/C797S (nM) 100 μM ATP, 100 μM ATP.
The mark [14] stands for this setting: IC50 L858R/C797S (nM) 100 μM ATP, 100 μM ATP.
Where [15] appears, read: IC50 WT (nM) 100 μM ATP, 100 μM ATP.
Where [16] appears, read: read-out: IC50 del19/T790M/C797S (nM) 100 μM ATP, 100 μM ATP.
The mark [17] stands for this setting: read-out: IC50 L858R/T790M/C797S (nM) 100 μM ATP, 100 μM ATP.
The mark [18] stands for this setting: read-out: IC50 del19/C797S (nM) 100 μM ATP, 100 μM ATP.
The mark [19] stands for this setting: read-out: IC50 L858R/C797S (nM) 100 μM ATP, 100 μM ATP.
[20] abbreviates: read-out: IC50 WT (nM) 100 μM ATP, 100 μM ATP.

pIC50: −log10 of the molar value. Where two headings read alike, the source gives them in different places.

Sequence of EGFR del19/C797S (P00533 with tags, fused parts or gaps DEL746-750/C797S): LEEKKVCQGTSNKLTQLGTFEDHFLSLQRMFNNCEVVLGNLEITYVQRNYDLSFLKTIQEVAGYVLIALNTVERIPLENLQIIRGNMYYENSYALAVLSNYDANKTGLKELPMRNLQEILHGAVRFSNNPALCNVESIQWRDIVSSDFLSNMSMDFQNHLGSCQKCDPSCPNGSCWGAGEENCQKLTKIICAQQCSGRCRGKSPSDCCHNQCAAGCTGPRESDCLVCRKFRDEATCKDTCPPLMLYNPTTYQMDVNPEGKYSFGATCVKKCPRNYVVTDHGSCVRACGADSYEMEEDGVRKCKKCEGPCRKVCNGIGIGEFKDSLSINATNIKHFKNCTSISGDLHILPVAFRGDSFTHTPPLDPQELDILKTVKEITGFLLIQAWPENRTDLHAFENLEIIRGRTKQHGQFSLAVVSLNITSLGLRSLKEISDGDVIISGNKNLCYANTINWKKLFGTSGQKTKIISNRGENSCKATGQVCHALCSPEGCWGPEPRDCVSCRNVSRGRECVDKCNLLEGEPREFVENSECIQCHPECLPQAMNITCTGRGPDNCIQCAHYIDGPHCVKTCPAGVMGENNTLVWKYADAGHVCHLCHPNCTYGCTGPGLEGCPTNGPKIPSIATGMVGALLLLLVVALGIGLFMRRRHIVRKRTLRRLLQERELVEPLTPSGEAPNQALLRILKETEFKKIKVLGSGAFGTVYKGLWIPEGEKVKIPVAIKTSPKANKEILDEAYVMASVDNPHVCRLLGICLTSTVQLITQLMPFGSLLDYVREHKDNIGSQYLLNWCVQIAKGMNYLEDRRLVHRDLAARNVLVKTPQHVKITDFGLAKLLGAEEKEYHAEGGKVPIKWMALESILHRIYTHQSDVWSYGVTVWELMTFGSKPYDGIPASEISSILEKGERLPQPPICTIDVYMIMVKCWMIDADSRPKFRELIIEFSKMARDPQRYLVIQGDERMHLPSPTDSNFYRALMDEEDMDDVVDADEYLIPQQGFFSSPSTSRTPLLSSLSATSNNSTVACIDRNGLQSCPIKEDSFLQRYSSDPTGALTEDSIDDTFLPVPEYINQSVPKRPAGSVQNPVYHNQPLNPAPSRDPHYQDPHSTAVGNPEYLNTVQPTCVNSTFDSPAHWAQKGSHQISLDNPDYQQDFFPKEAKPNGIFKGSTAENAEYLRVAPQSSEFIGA
Sequence of EGFR wildtype (WT) (P00533 25-1210): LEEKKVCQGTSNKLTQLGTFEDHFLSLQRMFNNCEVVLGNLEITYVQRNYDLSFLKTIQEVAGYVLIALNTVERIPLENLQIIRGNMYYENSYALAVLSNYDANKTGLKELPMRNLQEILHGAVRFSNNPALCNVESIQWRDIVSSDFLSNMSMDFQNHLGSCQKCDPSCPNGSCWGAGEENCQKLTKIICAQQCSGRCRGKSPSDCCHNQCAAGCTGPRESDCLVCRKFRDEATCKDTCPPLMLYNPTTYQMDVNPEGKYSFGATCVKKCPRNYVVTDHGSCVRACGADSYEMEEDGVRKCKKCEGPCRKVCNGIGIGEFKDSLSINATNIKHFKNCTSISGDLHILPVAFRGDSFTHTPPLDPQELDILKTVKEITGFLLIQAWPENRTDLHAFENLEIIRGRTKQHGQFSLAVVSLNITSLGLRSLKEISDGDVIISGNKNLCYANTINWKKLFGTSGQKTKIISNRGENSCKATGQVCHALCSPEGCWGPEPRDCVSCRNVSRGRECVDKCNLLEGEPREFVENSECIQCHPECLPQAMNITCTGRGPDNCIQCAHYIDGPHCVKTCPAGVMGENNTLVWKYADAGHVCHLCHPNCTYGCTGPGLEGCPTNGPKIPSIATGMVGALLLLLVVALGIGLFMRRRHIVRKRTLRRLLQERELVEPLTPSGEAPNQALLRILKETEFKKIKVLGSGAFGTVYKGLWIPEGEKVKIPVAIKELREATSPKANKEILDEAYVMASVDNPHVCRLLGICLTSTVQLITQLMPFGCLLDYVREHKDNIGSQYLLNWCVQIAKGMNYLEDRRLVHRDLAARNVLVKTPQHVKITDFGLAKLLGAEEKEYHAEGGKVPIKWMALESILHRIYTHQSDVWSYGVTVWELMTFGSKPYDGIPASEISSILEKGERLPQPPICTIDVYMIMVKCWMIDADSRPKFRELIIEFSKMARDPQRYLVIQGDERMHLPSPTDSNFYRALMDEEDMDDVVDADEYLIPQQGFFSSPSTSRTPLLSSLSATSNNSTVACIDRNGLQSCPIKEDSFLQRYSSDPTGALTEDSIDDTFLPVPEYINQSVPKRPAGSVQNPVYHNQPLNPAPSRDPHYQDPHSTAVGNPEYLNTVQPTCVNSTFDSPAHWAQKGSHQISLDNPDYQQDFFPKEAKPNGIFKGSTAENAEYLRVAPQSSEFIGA
Sequence of EGFR L858R/T790M/C797S (P00533 25-1210 T790M/C797S/L858R): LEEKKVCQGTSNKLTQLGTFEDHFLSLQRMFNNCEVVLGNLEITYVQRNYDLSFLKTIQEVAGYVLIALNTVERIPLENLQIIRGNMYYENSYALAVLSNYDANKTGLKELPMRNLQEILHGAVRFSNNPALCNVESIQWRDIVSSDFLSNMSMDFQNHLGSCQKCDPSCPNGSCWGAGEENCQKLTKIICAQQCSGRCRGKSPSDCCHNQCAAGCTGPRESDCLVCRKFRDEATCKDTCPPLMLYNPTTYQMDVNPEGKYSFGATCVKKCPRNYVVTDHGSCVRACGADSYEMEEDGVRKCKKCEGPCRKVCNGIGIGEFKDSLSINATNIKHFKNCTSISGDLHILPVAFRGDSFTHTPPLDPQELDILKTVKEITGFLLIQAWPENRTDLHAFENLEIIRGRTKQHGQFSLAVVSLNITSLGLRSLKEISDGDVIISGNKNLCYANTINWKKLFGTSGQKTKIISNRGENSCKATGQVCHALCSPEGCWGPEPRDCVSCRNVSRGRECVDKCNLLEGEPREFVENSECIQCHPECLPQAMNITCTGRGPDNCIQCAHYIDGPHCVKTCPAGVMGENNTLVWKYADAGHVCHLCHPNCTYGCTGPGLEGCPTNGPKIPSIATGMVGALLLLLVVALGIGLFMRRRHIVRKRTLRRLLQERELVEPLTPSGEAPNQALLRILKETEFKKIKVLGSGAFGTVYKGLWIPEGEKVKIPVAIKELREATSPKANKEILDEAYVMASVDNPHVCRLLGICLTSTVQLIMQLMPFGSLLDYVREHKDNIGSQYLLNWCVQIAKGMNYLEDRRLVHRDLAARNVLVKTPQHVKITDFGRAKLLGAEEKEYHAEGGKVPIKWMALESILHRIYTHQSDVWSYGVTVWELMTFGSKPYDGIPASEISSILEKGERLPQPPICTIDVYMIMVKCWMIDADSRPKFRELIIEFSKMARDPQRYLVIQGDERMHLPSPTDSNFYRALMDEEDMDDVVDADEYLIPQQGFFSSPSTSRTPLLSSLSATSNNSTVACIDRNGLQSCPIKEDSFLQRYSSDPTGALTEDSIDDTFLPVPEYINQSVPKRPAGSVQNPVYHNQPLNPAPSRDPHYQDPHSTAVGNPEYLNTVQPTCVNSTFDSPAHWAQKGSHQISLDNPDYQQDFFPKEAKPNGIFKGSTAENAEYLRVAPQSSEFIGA
Sequence of EGFR del19/T790M/C797S (P00533 with tags, fused parts or gaps DEL746-750/T790M/C797S): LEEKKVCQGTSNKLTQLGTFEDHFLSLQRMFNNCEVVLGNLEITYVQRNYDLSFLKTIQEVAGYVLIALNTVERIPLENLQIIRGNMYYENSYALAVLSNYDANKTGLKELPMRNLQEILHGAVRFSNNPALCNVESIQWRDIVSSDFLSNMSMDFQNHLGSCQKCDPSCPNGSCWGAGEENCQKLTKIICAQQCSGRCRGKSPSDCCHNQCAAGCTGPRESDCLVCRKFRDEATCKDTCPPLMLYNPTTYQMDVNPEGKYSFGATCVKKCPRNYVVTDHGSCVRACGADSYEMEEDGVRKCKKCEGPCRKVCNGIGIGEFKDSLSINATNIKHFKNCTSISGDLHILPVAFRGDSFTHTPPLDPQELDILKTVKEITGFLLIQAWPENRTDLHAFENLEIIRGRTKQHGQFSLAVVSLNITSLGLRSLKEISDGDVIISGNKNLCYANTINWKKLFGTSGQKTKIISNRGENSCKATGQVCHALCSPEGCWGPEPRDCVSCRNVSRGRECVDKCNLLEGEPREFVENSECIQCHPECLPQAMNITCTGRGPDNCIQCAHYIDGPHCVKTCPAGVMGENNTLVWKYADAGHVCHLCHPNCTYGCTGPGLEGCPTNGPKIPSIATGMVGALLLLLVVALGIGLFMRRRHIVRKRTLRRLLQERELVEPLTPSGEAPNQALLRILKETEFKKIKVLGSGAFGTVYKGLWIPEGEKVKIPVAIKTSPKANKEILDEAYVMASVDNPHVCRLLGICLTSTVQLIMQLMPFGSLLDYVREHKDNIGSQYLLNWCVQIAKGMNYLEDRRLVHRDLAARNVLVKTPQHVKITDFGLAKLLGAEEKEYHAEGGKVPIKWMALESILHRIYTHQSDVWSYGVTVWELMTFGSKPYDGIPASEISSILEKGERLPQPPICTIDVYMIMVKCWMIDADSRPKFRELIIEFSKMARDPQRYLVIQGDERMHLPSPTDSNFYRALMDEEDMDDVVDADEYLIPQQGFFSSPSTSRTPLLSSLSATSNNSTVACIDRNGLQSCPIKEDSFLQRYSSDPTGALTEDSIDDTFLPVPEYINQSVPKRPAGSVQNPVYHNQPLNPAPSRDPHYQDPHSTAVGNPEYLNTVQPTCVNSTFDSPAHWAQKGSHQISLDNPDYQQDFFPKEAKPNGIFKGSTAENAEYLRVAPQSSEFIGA

With `CC(=O)N1CC=C(c2nccc(Nc3cc(N[C@H]4CC[C@@](C)(O)CC4)c(-c4ccn(C(F)F)n4)cn3)n2)CC1` [Example 159, 1-(4-(4-((5-(1-(Difluoromethyl)-1H-pyrazol-3-yl)-4-(((1s,4s)-4-hydroxy-4-methylcyclohexyl)amino)pyridin-2-yl)amino)pyrimidin-2-yl)-3,6-dihydropyridin-1(2H)-yl)ethan-1-one], the IC50 in experiment [1] (setting [6]) was found to be 19.2 nM; in experiment [2] (setting [7]), 11.7 nM; in experiment [3] (setting [8]), 2050 nM; in experiment [4] (setting [9]), 291 nM; in experiment [5] (setting [10]), 327 nM.

Consider `Cn1ccc(-c2cnc(Nc3ccnc(-c4cnn(S(=O)(=O)C5CC5)c4)n3)cc2NCC2CCC(NCCF)CC2)n1` (stereo not drawn) [Example 131, N^2-(2-(1-(Cyclopropylsulfonyl)-1H-pyrazol-4-yl)pyrimidin-4-yl)-N^4-((4-((2-fluoroethyl)amino)cyclohexyl)methyl)-5-(1-methyl-1H-pyrazol-3-yl)pyridine-2,4-diamine], for which the IC50 was 0.3 nM in experiment [1] (setting [11]); 0.2 nM in experiment [1] (setting [6]); 0.3 nM in experiment [2] (setting [12]); 0.1 nM in experiment [2] (setting [7]); 0.5 nM in experiment [3] (setting [13]); 0.2 nM in experiment [3] (setting [8]). Further, the IC50 was found to be 1.1 nM in experiment [4] (setting [14]), 0.4 nM in experiment [4] (setting [9]), 1540 nM in experiment [5] (setting [15]) and 2.8 nM in experiment [5] (setting [10]).

As for `CS(=O)(=O)Cn1cc(-c2nccc(Nc3cc(N[C@H]4CC[C@@](C)(O)CC4)c(-c4ccn(C(F)F)n4)cn3)n2)cn1` [Example 150, (1s,4s)-4-((5-(1-(Difluoromethyl)-1H-pyrazol-3-yl)-2-((2-(1-((methylsulfonyl)methyl)-1H-pyrazol-4-yl)pyrimidin-4-yl)amino)pyridin-4-yl)amino)-1-methylcyclohexan-1-ol], the IC50 in experiment [1] (setting [6]) was found to be 1.6 nM; in experiment [2] (setting [7]), 1.2 nM; in experiment [3] (setting [8]), 21.2 nM; in experiment [4] (setting [9]) it was 14.7 nM; in experiment [5] (setting [10]), 104 nM.

For `Cn1nc(-c2cnc(Nc3ccnc(-c4cnn(S(=O)(=O)C5CC5)c4)n3)cc2NN2CCC(O)CC2)cc1C(F)(F)F` [Example 160, 1-((2-((2-(1-(Cyclopropylsulfonyl)-1H-pyrazol-4-yl)pyrimidin-4-yl)amino)-5-(1-methyl-5-(trifluoromethyl)-1H-pyrazol-3-yl)pyridin-4-yl)amino)piperidin-4-ol], the IC50 in experiment [1] (setting [6]) worked out at 1 nM; in experiment [2] (setting [7]), 0.5 nM; in experiment [3] (setting [8]), 2 nM; in experiment [4] (setting [9]) it was 1 nM; in experiment [5] (setting [10]) it was 8.3 nM.

As for `C[C@]1(O)CC[C@@H](Nc2cc(Nc3ccnc(-c4cnc5c(c4)CCCO5)n3)ncc2-c2ccn(C(F)F)n2)CC1` [Example 176, (1s,4s)-4-((5-(1-(Difluoromethyl)-1H-pyrazol-3-yl)-2-((2-(3,4-dihydro-2H-pyrano[2,3-b]pyridin-6-yl)pyrimidin-4-yl)amino)pyridin-4-yl)amino)-1-methylcyclohexan-1-ol], the IC50 came out at 0.3 nM in experiment [1] (setting [6]); 0.04 nM in experiment [2] (setting [7]); 264 nM in experiment [3] (setting [8]); 10.4 nM in experiment [4] (setting [9]); 752 nM in experiment [5] (setting [10]).

Consider `CN[C@H]1CC[C@@H](Nc2cc(Nc3ccnc(-c4cnn(S(=O)(=O)C5CC5)c4)n3)ncc2-c2ccco2)CC1` [Example 87, N^2-(2-(1-(Cyclopropylsulfonyl)-1H-pyrazol-4-yl)pyrimidin-4-yl)-5-(furan-2-yl)-N^4-((1s,4s)-4-(methylamino)cyclohexyl)pyridine-2,4-diamine], for which the IC50 is 0.2 nM in experiment [1] (setting [11]); 0.7 nM in experiment [2] (setting [12]); 6.9 nM in experiment [3] (setting [13]); 31.4 nM in experiment [4] (setting [14]); more than 10000 nM in experiment [5] (setting [15]).

For `O=S(=O)(C1CC1)n1cc(-c2nccc(Nc3cc(N[C@H]4CC[C@H](O)C4)c(-c4ccn(C(F)F)n4)cn3)n2)cn1` [Example 20, (1S,3S)-3-((2-((2-(1-(Cyclopropylsulfonyl)-1H-pyrazol-4-yl)pyrimidin-4-yl)amino)-5-(1-(difluoromethyl)-1H-pyrazol-3-yl)pyridin-4-yl)amino)cyclopentan-1-ol], the IC50 stood at 0.9 nM in experiment [1] (setting [11]); 0.3 nM in experiment [1] (setting [6]); 0.2 nM in experiment [2] (setting [7]); 3.4 nM in experiment [3] (setting [13]); 1 nM in experiment [3] (setting [8]); 51.9 nM in experiment [4] (setting [14]). For the same molecule, the IC50 is 3.1 nM in experiment [4] (setting [9]), more than 10000 nM in experiment [5] (setting [15]) and 21.1 nM in experiment [5] (setting [10]).

For the molecule `O=S(=O)(C1CC1)n1cc(-c2nccc(Nc3cc(N[C@H]4CC[C@@H](NCCF)CC4)c(-c4csc(C(F)(F)F)n4)cn3)n2)cn1` [Example 50, N^2-(2-(1-(Cyclopropylsulfonyl)-1H-pyrazol-4-yl)pyrimidin-4-yl)-N^4-((1s,4s)-4-((2-fluoroethyl)amino)cyclohexyl)-5-(2-(trifluoromethyl)thiazol-4-yl)pyridine-2,4-diamine], the IC50 in experiment [1] (setting [16]) was 1.1 nM; in experiment [2] (setting [17]), 1.6 nM; in experiment [3] (setting [18]), 25.6 nM; in experiment [4] (setting [19]) it was 42.2 nM; in experiment [5] (setting [20]), more than 10000 nM.

Consider `CC(C)n1ccc(-c2cnc(Nc3ccnc(-c4cnn(S(=O)(=O)C5CC5)c4)n3)cc2N[C@H]2CC[C@@H](O)CC2)n1` [Example 82, (1s,4s)-4-((2-((2-(1-(Cyclopropylsulfonyl)-1H-pyrazol-4-yl)pyrimidin-4-yl)amino)-5-(1-isopropyl-1H-pyrazol-3-yl)pyridin-4-yl)amino)cyclohexan-1-ol], for which the IC50 stood at 1.7 nM in experiment [1] (setting [16]); 1.8 nM in experiment [2] (setting [17]); 2.1 nM in experiment [3] (setting [18]); 3.9 nM in experiment [4] (setting [19]); 2410 nM in experiment [5] (setting [20]).

Consider `CN(C)CC[C@H]1CC[C@@H](Nc2cc(Nc3ccnc(-c4cnn(S(=O)(=O)C5CC5)c4)n3)ncc2-c2ccn(CC(F)F)n2)CC1` [Example 251, N^2-(2-(1-(Cyclopropylsulfonyl)-1H-pyrazol-4-yl)pyrimidin-4-yl)-5-(1-(2,2-difluoroethyl)-1H-pyrazol-3-yl)-N^4-((1s,4s)-4-(2-(dimethylamino)ethyl)cyclohexyl)pyridine-2,4-diamine], for which the IC50 in experiment [1] (setting [6]) was 0.7 nM; in experiment [2] (setting [7]), 0.2 nM; in experiment [3] (setting [8]), 0.4 nM; in experiment [4] (setting [9]), 0.1 nM; in experiment [5] (setting [10]) it was 0.3 nM.

For the molecule `CC(C)Nc1nc(Nc2ccnc(-c3cnn(S(=O)(=O)C4CC4)c3)c2)ncc1-c1ccn(C(F)F)n1` [Example 363, N^2-(2-(1-(Cyclopropylsulfonyl)-1H-pyrazol-4-yl)pyridin-4-yl)-5-(1-(difluoromethyl)-1H-pyrazol-3-yl)-N^4-isopropylpyrimidine-2,4-diamine], the pIC50 was 8.47 in experiment [1] (Km ATP, read-out: IC50 del19/T790M/C797S, Km ATP); 8.37 in experiment [2] (Km ATP, read-out: IC50 L858R/T790M/C797S, Km ATP); 6.39 in experiment [3] (Km ATP, read-out: IC50 del19/C797S, Km ATP); 6.18 in experiment [4] (Km ATP, read-out: IC50 L858R/C797S, Km ATP); 5.37 in experiment [5] (Km ATP, read-out: IC50 WT, Km ATP).

On to `O=S(=O)(C1CC1)n1cc(-c2nccc(Nc3cc(N[C@H]4CC[C@@H](F)CC4)c(-c4ccn(CCC(F)(F)F)n4)cn3)n2)cn1` [Example 306, N^2-(2-(1-(Cyclopropylsulfonyl)-1H-pyrazol-4-yl)pyrimidin-4-yl)-N^4-((1s,4s)-4-fluorocyclohexyl)-5-(1-(3,3,3-trifluoropropyl)-1H-pyrazol-3-yl)pyridine-2,4-diamine], for which the IC50 in experiment [1] (setting [6]) amounted to 9.1 nM; in experiment [2] (setting [7]), 5.9 nM; in experiment [3] (setting [8]) it was 171 nM; in experiment [4] (setting [9]), 47.9 nM; in experiment [5] (setting [10]), 1290 nM.
